Assay [1] has as its system bovine serum albumin (BSA) antigen. Briefly: Adjuvant activity in aqueous phase: anti-albumin antibody rate by passive hemagglutination. It is filed as in vivo, Swiss mice. To be noted: S.C., 100 μg with BSA 0.5 mg/animal in isotonic saline. Here is the method: In the series of tests of which the results are indicated hereafter, the influence of the active principle according to the invention was assessed as bearing on the anti-albumin antibody rate, particularly under the following conditions.
Groups of 8 two-month-old Swiss mice received by subcutaneous injection (SC) or orally (PO) 0.5 mg of antigen constituted by the bovine serum albumin (BSA) with or without the substance tested in an isotonic saline solution. This large dose of antigen, because of its closeness to the limit paralysing dose with respect to the immunising response, elicits but a weak or no immune response in the controls; it therefore constitutes a severe criterion for showing the activity of an adjuvant substance. Thirty days later, the mice received, by the same method of administration, a further dose containing 0.1 mg of the same antigen.
The proportion of antibody was determined by passive hemagglutination by using sheep red blood cells treated with formalin and coated with the antigen studied according to the method described by A. A. HIRATA and M. W. […] (J. Immunol., 100, 641-648, 1968). Blood samples were taken 14, 28, 34 and 36 days after the first injection.

Assay [2] deals with Klebsiella pneumoniae, strain of capsular type 2, biotype d. Kind of assay: Anti-infectious protection of mice against Klebsiella pneumoniae infection. The conditions noted are these: compound iv. 100 μg at -24 h; for % protection: difference of % survivors vs controls. Format: in vivo, hybrid mice (C57B1/6×AKR)F1.

Turning to `CC(=O)N[C@H]1C(O)O[C@H](CO)[C@@H](O)[C@@H]1OCC(=O)N[C@@H](C)C(=O)N[C@H](CCC(=O)O)C(N)=O` (stereo partly drawn) [norMur--NAc--L-Ala--D-Glu(OH)--NH2, 2(2-acetamido-2-deoxy-3-O-D-glucopyranosyl)-acetyl-L-alanyl-D-isoglutamine], the “Titer of antibody 28th day” value in assay [1] is 25. In assay [2] (K. pneumoniae im. 1,5 × 10^4), the “% survival D + 3” value is listed as 78%, the “% survival D + 5” value stood at 64%, the “% survival D + 10” value came to 60% and the “% protection” value is reported as 47%.
Turning to `CC(=O)N[C@H]1C(O)O[C@H](COC(=O)CCC(=O)O)[C@@H](O)[C@@H]1O[C@H](C)C(=O)N[C@@H](C)C(=O)N[C@H](CCC(=O)O)C(N)=O` (stereo partly drawn) [6-O-succinyl-Mur-NAc--L--Ala--D--Glu,(OH)--NH2], in assay [2] (K. pneumoniae im. 2 × 10^4), the “% survival D + 3” value is listed as 100%, the “% survival D + 5” value was 91%, the “% survival D + 10” value was 63% and the “% protection” value is 44%.
Turning to `CC(=O)N[C@H]1C(O)O[C@H](COC(C)=O)[C@@H](OC(C)=O)[C@@H]1O[C@H](C)C(=O)N[C@@H](C)C(=O)N[C@H](CCC(=O)O)C(N)=O` (stereo partly drawn) [4,6-di-O-acetyl--Mur--NAc--L--Ala--D--Glu(OH)--NH2], in assay [2] (K. pneumoniae im. 2 × 10^4), the “% survival D + 3” value is recorded as 97%, the “% survival D + 5” value was determined as 84%, the “% survival D + 10” value is listed as 63% and the “% protection” value is 47%.
On to `CC(=O)N[C@@H]1[C@@H](O[C@H](C)C(=O)N[C@@H](C)C(=O)N[C@H](CCC(=O)O)C(N)=O)[C@H](O)[C@@H](CO)O[C@H]1O` [Mur--NAc--L-Ala--D-Glu(OH)--NH2, Mur--NAc--L--Ala--D--Glu(OH)--NH2, reference compound], for which the “Titer of antibody 28th day” value in assay [1] is on record as 25. In assay [2] (K. pneumoniae im. 1,5 × 10^4), the “% survival D + 3” value is 83%, the “% survival D + 5” value was determined as 66%, the “% survival D + 10” value is on record as 60% and the “% protection” value was determined as 47%.

Values taken from patent US4327085A, “Biologically active compositions and methods of use” (Agence National de Valorisation de la Recherache (ANVAR), priority 1973, dated 1982).
